Results: ChEMBL document CHEMBL3046274, “Toxicity of imidacloprid to developmental stages of Rhynchophorus ferrugineus (Curculionidae: Coleoptera): Laboratory and field tests” (Crop Prot, 2006)
Activity calls are given as the source filed them. No cut-off for these calls is given here.

Tests used:
[1] = tested on: Rhynchophorus ferrugineus; test: Pesticidal activity against Rhynchophorus ferrugineus (red palm weevil) larvae assessed as mortality at 1.5 ppm, po at 114 hr post-treatment relative to control; type: functional
[2] = tested on: Rhynchophorus ferrugineus; test: Pesticidal activity against Rhynchophorus ferrugineus (red palm weevil) larvae assessed as mortality at 0.5 ppm, po at 90 hr post-treatment relative to control; type: functional
[3] = tested on: Rhynchophorus ferrugineus; test: Pesticidal activity against Rhynchophorus ferrugineus (red palm weevil) larvae infested date palm trees assessed as mortality at 2.5 ml/l applied through soil-drench irrigation 1 week after infestation measured on day 20 post-treatment relative to control; type: functional
[4] = tested on: Rhynchophorus ferrugineus; test: Pesticidal activity against Rhynchophorus ferrugineus (red palm weevil) larvae assessed as mortality at 1 ppm, po at 18 hr post-treatment relative to control; type: functional
[5] = tested on: Rhynchophorus ferrugineus; test: Pesticidal activity against Rhynchophorus ferrugineus (red palm weevil) larvae assessed as mortality at 0.5 ppm, po at 18 hr post-treatment relative to control; type: functional
[6] = tested on: Rhynchophorus ferrugineus; test: Pesticidal activity against Rhynchophorus ferrugineus (red palm weevil) larvae assessed as mortality at 1000 ppm administered topically at 48 hr post-treatment; type: functional
[7] = tested on: Rhynchophorus ferrugineus; test: Contact toxicity against Rhynchophorus ferrugineus (red palm weevil) adults assessed as time required for 50% reversible knockdown at 2.5 ml/l for 2 min; type: functional
[8] = tested on: Rhynchophorus ferrugineus; test: Pesticidal activity against Rhynchophorus ferrugineus (red palm weevil) cocoons assessed as mortality at 3.5 ml/l administered by dipping for 3 min measured within 3 days; type: functional
[9] = tested on: Rhynchophorus ferrugineus; test: Pesticidal activity against Rhynchophorus ferrugineus (red palm weevil) cocoons assessed as time required for total mortality at 2.5 ml/l administered by dipping for 30 secs; type: functional
[10] = tested on: Rhynchophorus ferrugineus; test: Pesticidal activity against Rhynchophorus ferrugineus (red palm weevil) cocoon assessed as mortality at 1.5 ppm administered by dipping for 3 min measured at 48 hr post-treatment relative to control; type: functional
[11] = tested on: Rhynchophorus ferrugineus; test: Pesticidal activity against adult Rhynchophorus ferrugineus (red palm weevil) infested date palm tree assessed as disorientation of collected live stage larvae at 20 ml/4l of water applied through soil-drench irrigation measured after 3 weeks relative to control; type: functional, organism-based
[12] = tested on: Rhynchophorus ferrugineus; test: Contact toxicity against Rhynchophorus ferrugineus (red palm weevil) adults assessed as time required for 100% reversible knockdown at 1.5 ml/l for 5 min; type: functional
[13] = tested on: Rhynchophorus ferrugineus; test: Contact toxicity against Rhynchophorus ferrugineus (red palm weevil) adults assessed as time required for 50% mortality at 3.5 ml/l for 2 min; type: functional
[14] = tested on: Rhynchophorus ferrugineus; test: Pesticidal activity against Rhynchophorus ferrugineus (red palm weevil) larvae assessed as mortality at 500 ppm administered topically at 72 hr post-treatment; type: functional
[15] = tested on: Rhynchophorus ferrugineus; test: Pesticidal activity against Rhynchophorus ferrugineus (red palm weevil) cocoon assessed as mortality at 4 ppm administered by dipping for 3 min measured at 114 hr post-treatment relative to control; type: functional
[16] = tested on: Rhynchophorus ferrugineus; test: Pesticidal activity against Rhynchophorus ferrugineus (red palm weevil) cocoon assessed as mortality at 4 ppm administered by dipping for 3 min measured at 48 hr post-treatment relative to control; type: functional
[17] = tested on: Rhynchophorus ferrugineus; test: Contact toxicity against Rhynchophorus ferrugineus (red palm weevil) adults assessed as time required for 100% reversible knockdown at 1.5 ml/l for 2 min; type: functional
[18] = tested on: Rhynchophorus ferrugineus; test: Pesticidal activity against Rhynchophorus ferrugineus (red palm weevil) cocoon assessed as mortality at 2 ppm administered by dipping for 3 min measured at 18 hr post-treatment relative to control; type: functional

O=[N+]([O-])/N=C1\NCCN1Cc1ccc(Cl)nc1 [IMIDACLOPRID]
Activity [1]: 100% | Activity [2]: 66.7% | Activity [3]: 100% | Activity [4]: 0% | Activity [5]: 0% | Activity [6]: 100% | Time [7]: 1.1 days | Activity [8]: 76.7% | Time [9]: 9.2 days | Activity [10]: 0% | Activity [11]: Active | Time [12]: 4.2 days | Time [13]: 4.1 days | Activity [14]: 72.2% | Activity [15]: 72.2% | Activity [16]: 44.4% | Time [17]: 9 days | Activity [18]: 0%
